Patent US20200390766A1, “PHARMACEUTICAL COMPOSITION” (Kowa Company, Ltd., priority 2019, published 2020)

How the values were obtained:
Format in all cases: in vivo, male ICR mice
[1] = test system: pulmonary fibrosis model mice exposed to bleomycin in the trachea; test: Preventive effect on pulmonary fibrosis (Example 1): lung wet weight; settings: FIG. 1; for lung weight as compared to the normal group: lungs extracted 21 days after exposure
Method: (§1) Compound A was dissolved in a 0.5% aqueous solution of methylcellulose (methylcellulose: Shin-Etsu Chemical Co., Ltd., distilled water: Otsuka Pharmaceutical Factory, Inc.) to prepare a sample solution. Further, losartan (Tokyo Chemical Industry Co., Ltd.) was dissolved in a 0.5% aqueous solution of methylcellulose to prepare a sample solution. Furthermore, pirfenidone (Ark Pharma Inc.) was dissolved in a 0.5% aqueous solution of methylcellulose to prepare a sample solution.
(§2) 6-week-old male ICR mice (Japan SLC, Inc.) were exposed to bleomycin (Nippon Kayaku Co., Ltd.) (1.5 mg/kg) dissolved in physiological saline in the trachea to prepare pulmonary fibrosis model mice.
Investigation was conducted in mice not exposed to bleomycin (exposed to physiological saline in the trachea) in the normal group (6 mice), and pulmonary fibrosis model mice exposed to bleomycin in the trachea divided into 4 groups (control, compound A 50 mg/kg/day, losartan 50 mg/kg/day, and pirfenidone 400 mg/kg/day; 10 mice in each group). From the day after exposure to bleomycin, a 0.5% aqueous solution of methylcellulose was orally administered (administered twice a day) to the normal group and the control group, the sample solution of compound A prepared above was orally administered (administered once a day) to the compound A administration group, the sample solution of losartan prepared above was orally administered (administered once a day) to the losartan administration group, and the sample solution of pirfenidone prepared above was orally administered (administered twice a day) to the pirfenidone administration group, respectively. Twenty-one days after the bleomycin exposure, the mice were anesthetized and whole lung tissues were extracted.
After washing the lung tissue extracted from the mouse with physiological saline, water was removed with a filter paper, and the wet weight was measured.

[2] = test system: pulmonary fibrosis model mice exposed to bleomycin in the trachea; test: Preventive effect on pulmonary fibrosis (Example 1): amount of hydroxyproline in the lungs; settings: 50 mg/kg/day oral once a day from the day after bleomycin exposure, day 21, FIG. 2; for amount of hydroxyproline in the lungs as compared to the control group: Dunnett test
Method: as §1, §2
(§3) Investigation was conducted in mice not exposed to bleomycin (exposed to physiological saline in the trachea) in the normal group (6 mice), and pulmonary fibrosis model mice exposed to bleomycin in the trachea divided into 4 groups (control, compound A 50 mg/kg/day, losartan 50 mg/kg/day, and pirfenidone 400 mg/kg/day; 10 mice in each group). […]
The lung tissue extracted from the mouse was homogenized in a PBS solution, then mixed with an equal volume of 12N hydrochloric acid in a tube, and incubated at 110° C. for 20 to 24 hours. […] 10 μL of the sample was added with 100 μL of chloramine T solution (1.4% chloramine T, 10% n-propanol, 80% citrate acetate buffer) and incubated at room temperature for 20 minutes, then added with 100 μL of Ehrlich's reagent (1 M p-dimethylamino benzaldehyde, 20% perchloric acid, 50% n-propanol) and incubated at 65° C. for 15 minutes, and the absorbance at 550 nm was measured to quantify the amount of hydroxyproline.

[3] = test system: pulmonary fibrosis model mice exposed to bleomycin in the trachea; test: Therapeutic effect on pulmonary fibrosis (Example 2): amount of hydroxyproline in the lungs; settings: day 21, Dunnett test, FIG. 3
Method: The lung tissue extracted from the mouse was homogenized in a PBS solution, then mixed with an equal volume of 12N hydrochloric acid in a tube, and incubated at 110° C. for 20 to 24 hours. After the incubation, the solution was volatilized by opening the tube and continuing the incubation. Thereafter, the resulting mixture was suspended in a citrate acetate buffer (5% citric acid, 1.2% glacial acetic acid, 7.25% sodium acetate, 3.4% sodium hydroxide, pH 6.0), and the solution filtered with a 0.45 μm diameter centrifugal filter was used as a sample. 10 μL of the sample was added with 100 μL of chloramine T solution (1.4% chloramine T, 10% n-propanol, 80% citrate acetate buffer) and incubated at room temperature for 20 minutes, then added with 100 μL of Ehrlich's reagent (1 M p-dimethylamino benzaldehyde, 20% perchloric acid, 50% n-propanol) and incubated at 65° C. for 15 minutes, and the absorbance at 550 nm was measured to quantify the amount of hydroxyproline.
Compound A was dissolved in a 0.5% aqueous solution of methylcellulose (methylcellulose: Shin-Etsu Chemical Co., Ltd., distilled water: Otsuka Pharmaceutical Factory, Inc.) to prepare a sample solution. Further, losartan (Tokyo Chemical Industry Co., Ltd.) was dissolved in a 0.5% aqueous solution of methylcellulose to prepare a sample solution. Furthermore, pirfenidone (Ark Pharma Inc.) was dissolved in a 0.5% aqueous solution of carboxymethyl cellulose (carboxymethyl cellulose: Maruishi Pharmaceutical Co., Ltd.) to prepare a sample solution.
Model mice were prepared in the same manner as in Example 1.
as §3
The amount of hydroxyproline in the mice was measured by the same method as in Example 1.

[4] = 50 mg/kg/day oral once a day from the day after bleomycin exposure
[5] = 50 mg/kg/day oral once a day from the 7th day after bleomycin exposure

| SMILES | lung weight as compared to the normal group [1, 4] | amount of hydroxyproline in the lungs as compared to the control group [2] | amount of hydroxyproline in the lungs as compared to the control group [3, 5] | lung weight as compared with the control group ([1]; 50 mg/kg/day oral once a day from the day after bleomycin exposure, day 21, Dunnett test) | decrease of hydroxyproline in the lung relative to the losartan administration group [2] | lung weight as compared to the normal group ([1]; 400 mg/kg/day oral twice a day from the day after bleomycin exposure) | amount of hydroxyproline in the lungs as compared to the control group ([3]; 400 mg/kg/day oral twice a day from the 7th day after bleomycin exposure) |
| --- | --- | --- | --- | --- | --- | --- | --- |
| CCCCc1nc(Cl)c(CO)n1Cc1ccc(-c2ccccc2-c2nn[nH]n2)cc1 [losartan] | significant increase in lung weight | significant decrease in hydroxyproline in the lung | no significant difference |  |  |  |  |
| CCCc1nc(C(C)C)n(-c2ncc(OCC)cn2)c(=O)c1Cc1ccc(-c2ccccc2-c2noc(=O)[nH]2)nc1 [compound A, 3-[2-(5-{[1-(5-ethoxypyrimidin-2-yl)-2-isopropyl-6-oxo-4-propyl-1,6-dihydropyrimidin-5-yl]methyl}pyridin-2-yl)phenyl]-1,2,4-oxadiazol-5(4H)-one] | no significant increase in lung weight | significant decrease in hydroxyproline in the lung | significant decrease in hydroxyproline in the lung | significant decrease in lung weight | larger decrease than the losartan administration group |  |  |
| Cc1ccc(=O)n(-c2ccccc2)c1 [pirfenidone] |  |  |  |  |  | significant increase in lung weight | no significant difference |
